Experimental data reported in paper PMC11124413, “Synthesis, Antibacterial Effects, and Toxicity of Licochalcone C” (Pharmaceuticals, 2024).
≈ marks a conversion by molar mass, not a printed value. Where “and” joins values, the source holds several entries; their conditions need not be identical. Identical values can stand only once. Like-named read-outs stand apart in the source and are kept apart here. Positions of bridges follow the written chain, without caps; N, C: chain ends. Non-standard residues stand in square brackets, D forms with d. No end group written: not given here. Abu = CC[C@H](N)C(=O)O; Dhb = C/C=C(\N)C(=O)O; Dha = C=C(N)C(=O)O

How the values were obtained:
MSSA (ATCC 6538) = experiment: MIC, broth microdilution with resazurin; assay type: cell-based; conditions: Staphylococcus aureus (MSSA), mean of triplicates
MRSA (ATCC BAA44) = experiment: MIC, broth microdilution with resazurin; assay type: cell-based; conditions: Staphylococcus aureus (MRSA), mean of triplicates
[1] = system: S. epidermidis (ATCC 14990); experiment: MIC, broth microdilution with resazurin; assay type: cell-based; conditions: ATCC14990; Staphylococcus epidermidis; mean of triplicates
E. faecalis (ATCC 1299) = experiment: MIC, broth microdilution with resazurin; assay type: cell-based; conditions: ATCC1299; Enterococcus faecalis; mean of triplicates
[2] = system: S. pneumoniae (ATCC 6305); experiment: MIC, broth microdilution with resazurin; assay type: cell-based; conditions: ATCC6305; Streptococcus pneumoniae; mean of triplicates
[3] = system: S. sanguinis (ATCC 10556); experiment: MIC, broth microdilution with resazurin; assay type: cell-based; conditions: ATCC10556; Streptococcus sanguinis; mean of triplicates
S. sobrinus (ATCC 33478) = experiment: MIC, broth microdilution with resazurin; assay type: cell-based; conditions: ATCC33478; Streptococcus sobrinus; mean of triplicates
S. mutans (ATCC 25175) = experiment: MIC, broth microdilution with resazurin; assay type: cell-based; conditions: ATCC25175; Streptococcus mutans; mean of triplicates
[4] = system: M. tuberculosis (ATCC 27294); experiment: Antimycobacterial MIC, resazurin microtiter assay; assay type: cell-based; conditions: ATCC27294; Mycobacterium tuberculosis; mean of triplicates
M. avium (ATCC 25291) = experiment: Antimycobacterial MIC, resazurin microtiter assay; assay type: cell-based; conditions: ATCC25291; Mycobacterium avium; mean of triplicates
M. kansasii (ATCC 12478) = experiment: Antimycobacterial MIC, resazurin microtiter assay; assay type: cell-based; conditions: ATCC12478; Mycobacterium kansasii; mean of triplicates
H. pylori (ATCC 43526) = experiment: MIC, broth microdilution with resazurin; assay type: cell-based; conditions: Helicobacter pylori, mean of triplicates
[5] = system: P. aeruginosa (ATCC 27853); experiment: MIC, broth microdilution with resazurin; assay type: cell-based; conditions: Pseudomonas aeruginosa, mean of triplicates
[6] = system: K. pneumoniae (ATCC 23883); experiment: MIC, broth microdilution with resazurin; assay type: cell-based; conditions: Klebsiella pneumoniae, mean of triplicates
[7] = system: Escherichia coli (ATCC 25922); experiment: MIC, broth microdilution with resazurin; assay type: cell-based
Gram-positive bacteria = experiment: MIC, panel of Gram-positive bacteria; assay type: cell-based; conditions: all Gram-positive bacteria tested
MRSA planktonic cells = experiment: Checkerboard assay; assay type: cell-based, S. aureus; conditions: for MIC: Staphylococcus aureus, read-out: MIC Alone; for MIC Combined: in combination LCC + VAN
Description: (§1) The combinations of LCC with tetracycline and vancomycin were evaluated against MSSA and MRSA, respectively, using a microdilution broth checkerboard assay, according to White and collaborators, adapted with the standard procedure established by the CLSI [51, 54]. The fractional inhibitory concentration (FIC) of the combination between LCC and tetracycline or vancomycin was determined using Mueller–Hinton broth culture medium into 96-well plates, with a final inoculum suspension of 5.0 × 10^5 CFU/mL, incubated at 37 °C for 24 h. After incubation, an aqueous resazurin solution (0.02%) was added to the wells and the FIC values (ratio between the MIC of the drug in combination and the MIC of the drug alone) were determined for each drug (Equations (1) and (2)). The fractional inhibitory concentration index (FICI) was calculated using Equation (3). (1) FICLCC=MIC of drug A in combination/MIC of drug A alone (2) FICD=MIC of drug B in combination/MIC of drug B alone FIC Index (FICI) = FICLCC + FICD(3)
(§2) The combination was classified as synergistic (FICI ≤ 0.5), indifferent (0.5 < FICI < 4), and antagonistic (FICI ≥ 4). The assays were performed in triplicate in independent experiments.

MSSA planktonic cells = experiment: Checkerboard assay; assay type: cell-based, S. aureus; conditions: for MIC: Staphylococcus aureus, drug alone; for MIC / MIC Combined: checkerboard; for MIC Combined: in combination LCC + TC
Description: as §1, §2

MSSA biofilm = experiment: Antibiofilm assay (biofilm formation); assay type: cell-based, S. aureus; conditions: for MBIC50 (minimum biofilm inhibitory concentration): MSSA biofilm formation
MRSA biofilm = experiment: Antibiofilm assay (biofilm formation); assay type: cell-based, S. aureus; conditions: for MBIC50 (minimum biofilm inhibitory concentration): MRSA biofilm formation
[8] = system: Galleria mellonella larvae; experiment: Systemic toxicity in Galleria mellonella larvae; assay type: in vivo
Description: The systemic toxicity assay was performed to evaluate the acute toxic effects of LCC, following the procedures described by Megaw [63]. For the experiment, 10 healthy larvae from G. mellonella were randomly selected for each concentration test, with a weight range between 0.2 g and 0.3 g and without melanization aspects. The larvae were chilled on ice for 20 min and had their prolegs cleaned with 70% ethanol. […] Five microliters of the solution were injected into the hemocoel of each larva through the last left proleg using a 25 µL Hamilton syringe. After the administration, the larvae were incubated at 37 °C and their survival was monitored in selected intervals over 72 h. The larvae unable to move when touched and showing elevated levels of melanization were counted as dead. Experiments were performed in triplicate.

NADH-oxidase = target: NADH-oxidase; design: method as in PMID 9621457; conditions: cited from earlier work
[9] = target: NADH-cytochrome c reductase; design: method as in PMID 9621457; conditions: cited from earlier work
NADH-CoQ reductase = target: NADH-CoQ reductase; design: method as in PMID 9621457; conditions: cited from earlier work
NADH-FMN oxidoreductase = target: NADH-FMN oxidoreductase; design: method as in PMID 9621457; conditions: cited from earlier work
[10] = system: E. coli respiratory chain; design: method as in PMID 9621457; conditions: cited from earlier work
T24 (bladder) = system: T24 (bladder); design: method as in PMID 26397392; conditions: at 45 µg/mL; cited from earlier work
MCF7 (breast) = system: MCF7 (breast); design: method as in PMID 26397392; conditions: at 45 µg/mL; cited from earlier work
A549 (lung) = system: A549 (lung); design: method as in PMID 26397392; conditions: at 45 µg/mL; cited from earlier work
HCT116 (colorectal) = system: HCT116 (colorectal); design: method as in PMID 38148556; conditions: read-out: IC50 (proliferation); cited from earlier work
HepG2 (liver) = system: HepG2 (liver); design: method as in PMID 32578448; conditions: read-out: IC50 (proliferation); cited from earlier work
HN22 (oral) = system: HN22 (oral); design: method as in PMID 30129052; conditions: read-out: IC50 (proliferation); cited from earlier work
HSC4 (oral) = system: HSC4 (oral); design: method as in PMID 30129052; conditions: read-out: IC50 (proliferation); cited from earlier work
KYSE 30 (esophageal) = system: KYSE 30 (esophageal); design: method as in PMID 32009586; conditions: read-out: IC50 (proliferation); cited from earlier work
KYSE 70 (esophageal) = system: KYSE 70 (esophageal); design: method as in PMID 32009586; conditions: read-out: IC50 (proliferation); cited from earlier work
KYSE 410 (esophageal) = system: KYSE 410 (esophageal); design: method as in PMID 32009586; conditions: read-out: IC50 (proliferation); cited from earlier work
KYSE 450 (esophageal) = system: KYSE 450 (esophageal); design: method as in PMID 32009586; conditions: read-out: IC50 (proliferation); cited from earlier work
KYSE 510 (esophageal) = system: KYSE 510 (esophageal); design: method as in PMID 32009586; conditions: read-out: IC50 (proliferation); cited from earlier work
Vero cells = system: Vero cells; design: method as in PMID 31749783; conditions: cited from earlier work
[11] = system: Staphylococcus aureus (ATCC 29213) membrane; experiment: Membrane disruption assay, fluorescence microscopy with SYTO9 and propidium iodide; conditions: S. aureus; LCC at MIC 12.5 µg/mL, 15 min; nisin positive control
Description: Two fluorescent dyes propidium iodide (PI) and SYTO9 were added, which stain cells with disrupted membranes (in pink) and whole membranes (in blue).
The assay was performed using Staphylococcus aureus (ATCC 29213), an MSSA strain. Bacterial cells were cultivated in solid TSA broth (tryptone soya) at 36 °C and stirred at 200 rpm. […] Cells were stained with the Live/Dead BacLight Kit (Thermo-Scientific® L7012, Carlsbad, CA, USA), which is composed of two nucleic acid dyes: SYTO9, which stains all cells, and propidium iodide, which penetrates cells with damaged membranes [60]. The stained cells were immobilized on agarose-covered slides as described by Martins [61]. Untreated S. aureus cells with intact membranes were used as negative controls, and S. aureus cells exposed to nisin (Sigma-Aldrich® N5764, St. Louis, MO, USA) were used as positive controls for membrane damage [62]. Microscopic analyses were carried out using an Olympus BX-61 microscope, equipped with a monochromatic OrcaFlash-2.8 camera (Hamamatsu, Japan), and the software CellSens Dimension Version 11 (Olympus).

[12] = ATCC25922, mean of triplicates, read-out: MIC

## COc1c(/C=C/C(=O)c2ccc(O)cc2)ccc(O)c1CC=C(C)C [LCC, licochalcone C]
MSSA (ATCC 6538)
  MIC: 12.5 µg/mL (≈ 36.9 µM)
MSSA (ATCC 6538); read-out: MIC
  MIC: 12.5 µg/mL (≈ 36.9 µM)
MRSA (ATCC BAA44)
  MIC: 12.5 µg/mL (≈ 36.9 µM)
MRSA (ATCC BAA44); read-out: MIC
  MIC: 12.5 µg/mL (≈ 36.9 µM)
[1]
  MIC: 6.2 µg/mL (≈ 18.3 µM)
E. faecalis (ATCC 1299)
  MIC: 50 µg/mL (≈ 148 µM)
[2]
  MIC: 50 µg/mL (≈ 148 µM)
[3]
  MIC: 6.2 µg/mL (≈ 18.3 µM)
S. sobrinus (ATCC 33478)
  MIC: 12.5 µg/mL (≈ 36.9 µM)
S. mutans (ATCC 25175)
  MIC: 12.5 µg/mL (≈ 36.9 µM)
[4]
  MIC: 31.2 µg/mL (≈ 92.2 µM)
M. avium (ATCC 25291)
  MIC: 62.5 µg/mL (≈ 185 µM)
M. kansasii (ATCC 12478)
  MIC: 125 µg/mL (≈ 369 µM)
H. pylori (ATCC 43526); ATCC43526, read-out: MIC
  MIC: 25 µg/mL (≈ 73.9 µM)
H. pylori (ATCC 43526)
  MIC: 25 µg/mL (≈ 73.9 µM)
[5]; ATCC27853, read-out: MIC
  MIC: > 400 µg/mL
[5]
  MIC: >400 µg/mL
[6]; ATCC23883, read-out: MIC
  MIC: > 400 µg/mL
[6]
  MIC: >400 µg/mL
[7]; [12]
  MIC: > 400 µg/mL
[7]; mean of triplicates
  MIC: >400 µg/mL
Gram-positive bacteria
  MIC, range over Gram-positive bacteria: 6.2 to 50.0 µg/mL
MRSA planktonic cells; checkerboard, drug alone
  MIC: 12.5 µg/mL
MRSA planktonic cells; checkerboard
  MIC Combined: 6.25 µg/mL
MRSA planktonic cells; combination LCC + VAN
  FICLCC (fractional inhibitory concentration for LCC): 0.5
MSSA planktonic cells
  MIC: 12.5 µg/mL
  MIC Combined: 3.12 µg/mL
MSSA planktonic cells; combination LCC + TC
  FICLCC (fractional inhibitory concentration for LCC): 0.25
MSSA biofilm
  inhibition of biofilm formation: 75%
  MBIC50 (minimum biofilm inhibitory concentration): 6.25 µg/mL
MRSA biofilm
  MBIC50 (minimum biofilm inhibitory concentration): 6.25 µg/mL
MRSA biofilm; MRSA, at MBIC50 (6.25 μg/mL)
  inhibition of biofilm formation: 87%
[8]; 100 µg/mL after 80 h treatment
  lethality to larvae: not lethal
[8]; LCC at 12.5, 25, 50, and 100 µg/mL, over a period of 72 h
  larvae survival: 100%
NADH-oxidase
  IC50: 3 µM
[9]
  IC50: 29.6 µM
NADH-CoQ reductase
  IC50: > 100 µM
NADH-FMN oxidoreductase
  IC50: > 100 µM
[10]
  inhibition of respiratory chain: did not inhibit
T24 (bladder)
  proliferation inhibition: 68%
MCF7 (breast)
  proliferation inhibition: 47%
A549 (lung)
  proliferation inhibition: 40%
HCT116 (colorectal)
  IC50: 16.6 µM
HepG2 (liver)
  IC50: 50.8 µM
HN22 (oral)
  IC50: 23.8 µM
HSC4 (oral)
  IC50: 27.1 µM
KYSE 30 (esophageal)
  IC50: 28 µM
KYSE 70 (esophageal)
  IC50: 36 µM
KYSE 410 (esophageal)
  IC50: 19 µM
KYSE 450 (esophageal)
  IC50: 28 µM
KYSE 510 (esophageal)
  IC50: 26 µM
Vero cells
  IC50: 27.7 µg/mL (≈ 81.9 µM)
[11]
  percentage of cells with permeabilized membrane (stained with both fluorophores): 75%

## CN(C)[C@@H]1C(O)=C(C(N)=O)C(=O)[C@@]2(O)C(O)=C3C(=O)c4c(O)cccc4[C@@](C)(O)[C@H]3C[C@@H]12 [Tetracycline, tetracycline, reference compound]
MSSA (ATCC 6538); read-out: MIC
  MIC: 0.09 µg/mL (≈ 0.203 µM)
[1]
  MIC: > 5.9 µg/mL
E. faecalis (ATCC 1299)
  MIC: 3.3 µg/mL (≈ 7.43 µM)
[2]
  MIC: 0.4 µg/mL (≈ 0.9 µM)
H. pylori (ATCC 43526); ATCC43526, read-out: MIC
  MIC: 1.47 µg/mL (≈ 3.31 µM)
[5]; ATCC27853, read-out: MIC
  MIC: 5.9 µg/mL (≈ 13.3 µM)
[6]; ATCC23883, read-out: MIC
  MIC: 1.47 µg/mL (≈ 3.31 µM)
[7]; [12]
  MIC: 0.73 µg/mL (≈ 1.64 µM)
MSSA planktonic cells
  MIC: 0.09 µg/mL
  MIC Combined: 0.18 µg/mL
MSSA planktonic cells; combination LCC + TC
  FICD (fractional inhibitory concentration for the associated drug): 2.0
MSSA biofilm
  MBIC50 (minimum biofilm inhibitory concentration): 0.046 µg/mL

## CN[C@H](CC(C)C)C(=O)N[C@H]1C(=O)N[C@@H](CC(N)=O)C(=O)N[C@H]2C(=O)N[C@H]3C(=O)N[C@H](C(=O)N[C@H](C(=O)O)c4cc(O)cc(O)c4-c4cc3ccc4O)[C@H](O)c3ccc(c(Cl)c3)Oc3cc2cc(c3O[C@@H]2O[C@H](CO)[C@@H](O)[C@H](O)[C@H]2O[C@H]2C[C@](C)(N)[C@H](O)[C@H](C)O2)Oc2ccc(cc2Cl)[C@H]1O [Vancomycin, vancomycin, reference compound]
MRSA (ATCC BAA44); read-out: MIC
  MIC: 0.73 µg/mL (≈ 0.504 µM)
MRSA planktonic cells
  MIC: 0.73 µg/mL
MRSA planktonic cells; checkerboard
  MIC Combined: 0.36 µg/mL
MRSA planktonic cells; combination LCC + VAN
  FICD (fractional inhibitory concentration for the associated drug): 0.5
MRSA biofilm
  MBIC50 (minimum biofilm inhibitory concentration): 0.737 µg/mL and 0.7375 µg/mL

## nisin (I[Dhb]AI[Dha]LC[Abu]PGCK[Abu]GALMGCNMK[Abu]A[Abu]CHCSIHV[Dha]K; thioether 8-11, 13-19, 23-26, 25-28, 3-7; UniProt P13068 24-57, looked up) [reference compound]
[11]
  percentage of cells with permeabilized membrane (stained with both fluorophores): 95%
